Series [1] deals with T. cruzi epimastigotes. Put plainly: Hoechst/PI double stain, chromatin condensation, T. cruzi. The class given is cell-based, Trypanosoma cruzi. To be noted: IC90, 24 h. From the text:
(§1) To identify the type of cell death occurring in both kinetoplastids after treatment, Hoechst 33342 and propidium iodide (PI) dyes were used. Even though both dyes are DNA affine, the Hoechst 33342 stain is cell permeable and known to distinguish apoptotic cells from healthy or necrotic cells, whereas the PI is cell impermeable and stain dead cells as late apoptotic or necrosis. After treatment, three types of staining could be observed: blue fluorescence for cells undergoing apoptosis, violet color as the merge of blue and red fluorescence for late apoptotic cells, and red color for dead cells.

Series [2] concerns L. amazonensis promastigotes. Put plainly: Monodansylcadaverine staining of autophagic vacuoles, L. amazonensis. The class given is cell-based, Leishmania amazonensis. To be noted: 24 h treatment, confocal microscopy. On the procedure: The present method consists of staining the autophagic vacuoles with the treated cells by ion trapping and specific interactions with the vesicle membrane lipids. The experiment was carried out by following the manufacturer’s recommendations, and as described previously. After 24 h of incubation, cells were stained with MDC reagent at 5 mM and incubated at 26 °C for 30 min in µ-Slide 8 (Ibidi, Gräfelfing, Germany). Later, the cells were washed with PBS and observed with Leica DMI 4000 B.

In series [3] the test system is T. cruzi epimastigotes. Put plainly: Mitochondrial membrane potential, JC-1, T. cruzi. To be noted: JC-1 red/green ratio, IC90, 24 h. It counts as cell-based, Trypanosoma cruzi. How it is done: The measurement of mitochondrial membrane potential was carried out using the JC-1 assay. JC-1 is a mitochondria-specific stain whose fluorescence emission depends on the mitochondrial membrane potential. In healthy mitochondria, JC-1 aggregates and emits red fluorescence, whereas in unhealthy mitochondria, it remains in monomeric form and emits green fluorescence. […] The assay was performed according to the manufacturer’s instructions, as detailed in a previous study.

Series [4] has as its system T. cruzi. Put plainly: Atomic force microscopy, T. cruzi. It counts as cell-based, Trypanosoma cruzi. To be noted: IC90, 12 and 24 h. How it is done: (§2) […] After incubation, cells were washed twice with PBS, and 10 µL of a 10^5 cells/mL suspension was smeared onto glass slides. Prior to AFM analysis, samples were dried for 10 min. AFM topographic images were acquired in Peak Force mode using a multimode microscope equipped with a Nanoscope V control unit (Bruker). Scans were performed at rates of 0.5–1.2 Hz, employing FESP tips (50–100 kHz, 1–5 N/m) from Bruker. The damage caused by derivative 9 in both parasites was assessed by recording images at scales ranging from 100 µm × 100 µm to 0.6 µm × 0.6 µm, with a resolution of 512 points per line.

Series [5] concerns L. amazonensis promastigotes. Put plainly: Hoechst/PI double stain, chromatin condensation, L. amazonensis. The class given is cell-based, Leishmania amazonensis. To be noted: IC90, 24 h.
From the text: as §1

For series [6], the system named is L. amazonensis. Put plainly: Intracellular ROS, CellROX Deep Red, L. amazonensis. It counts as cell-based, Leishmania amazonensis. To be noted: 24 h incubation. On the procedure:
(§3) The measure of reactive oxygen species (ROS) was measured after treatment of 24 h using CellROX® Deep Red fluorescent probe (Invitrogen, Madrid, Spain). The mitochondria constitute an essential organelle to neutralize the reactive oxygen species; the malfunction of this organelle would generate an imbalance between the antioxidants and the reactive oxygen.

Series [7] concerns L. amazonensis. Put plainly: Atomic force microscopy, L. amazonensis. To be noted: IC90, 12 and 24 h. It counts as cell-based, Leishmania amazonensis. How it is done: as §2
Series [8] concerns T. cruzi. Put plainly: Intracellular ROS, CellROX Deep Red, T. cruzi. It counts as cell-based, Trypanosoma cruzi. To be noted: 24 h incubation. On the procedure:
as §3

Series [9] concerns L. amazonensis. On the procedure:
(§4) The effect of derivatives 9 and 10 to modulate cell features was studied in the tested protozoa parasites, using various specific commercial kits. Parasite cells were incubated with the derivative at the previously calculated IC90 for 24 h. Subsequently, cells were washed and submitted to different treatments as mentioned by the manufacturer’s instructions. In all the assays, a plate reader EnSpire Multimode Plate Reader® and/or an image base system fluorescence microscope EVOS M5000 were used for the fluorescence intensity quantification. For each protocol, images of representative population cells were obtained using an inverted confocal microscope Leica DMI 4000 B with LAS X software, and Leica HC PL APO 63×/1.40 OIL CS2 Objective (Barcelona, Spain). The SYTOX™ Green (Life Technologies, Madrid, Spain), a cell impermeable DNA binding stain, was used to evaluate the membrane permeability and integrity. The assay was conducted as detailed in the manufacture instructions, and as previously described.

Series [10] deals with T. cruzi. How it is done:
as §4

Results on two molecules are retold here after publication PMC12024213, “Mechanism Insight of Cell Death Signaling by Thymol Derivatives on Trypanosomatidae Protozoan Parasites” (Antibiotics, 2025).

Consider `COc1ccc(C(=O)Oc2cc(C)ccc2C(C)C)cc1` [Derivative 9, thymyl anysoate], for which the “chromatin condensation (Hoechst/PI staining)” value (in the series on T. cruzi epimastigotes [1]; in series [5]) was “increasing the chromatin condensation” each time. The “autophagic vacuoles (MDC staining)” value in [2] is “Induction of autophagy”. For the same molecule, in the series on T. cruzi epimastigotes [3], the “decrease of mitochondrial membrane potential (ΔΨm)” value is reported as 70%. Also, the “morphological effects (AFM)” value in the series with T. cruzi [4] and in the series with L. amazonensis [7] was “induced the formation of giant vacuoles in the cytoplasm” each time. Moreover, the “intracellular ROS (CellROX Deep Red)” value in the series with L. amazonensis [6] and with T. cruzi [8] was “induced oxidative stress” in each case.
For `Cc1ccc(C(C)C)c(OC(=O)c2ccccn2)c1` [Derivative 10, thymyl picolinate], the “chromatin condensation (Hoechst/PI staining)” value (with T. cruzi epimastigotes [1]; in series [5]) was “increasing the chromatin condensation” in each case. Moreover, the “autophagic vacuoles (MDC staining)” value in series [2] is given as “Induction of autophagy”. The “plasma membrane permeability (SYTOX Green)” value with L. amazonensis [9] and in the series with T. cruzi [10] was “greater damage to membrane permeability” in each case.
